Assay results published in patent US9078900B2 (priority 2008, dated 2015).

Conditions: at the end of the third month after implantation

Cc1nc2n(c(=O)c1CCN1CCC(c3noc4cc(F)ccc34)CC1)CCCC2 [Risperidone, risperidone]
presence of risperidone in the dog plasma: still present at a high level
